Data as given in patent US9233108B2 (ALMIRALL, S.A., priority 2011, dated 2016).

Assays:
[1] = molecular target: human adrenergic beta2 receptors (Homo sapiens (Human), UniProt P07550); experiment: Human adrenergic β2 receptor binding assay; settings: Sf9 cell membranes, 3H-CGP12177 radioligand
Procedure: Test 1: Human Adrenergic β1 and β2 Receptor Binding Assays
The study of binding to human adrenergic beta1 and beta2 receptors was performed using commercial membranes prepared from Sf9 cells where they are overexpressed (Perkin Elmer). The membrane suspensions (16 μg/well for beta1 and 5 μg/well for beta2) in assay buffer (75 mM Tris/HCl with 12.5 mM MgCl2 and 2 mM EDTA pH=7.4) were incubated with 0.14 or 0.6 nM of 3H-CGP12177 (Amersham) for beta 1 and beta 2 receptors respectively in a final volume of 250 μl, in GFC Multiscreen 96 well plates (Millipore) previously treated with assay buffer containing 0.3% PEI (Sigma). Non specific binding was measured in the presence of 1 μM propanolol. Incubation was maintained for 60 minutes at room temperature and with gentle shaking. The binding reactions were terminated by filtration and washing with 2.5 volumes of Tris/HCl 50 mM pH=7.4. The affinity of each test compound to the receptor was determined by using ten different concentrations ran in duplicate. IC50s were calculated using Activity Base software from IDBS and the four parameters-log equation.

[2] = molecular target: human muscarinic M3 receptors (Homo sapiens (Human), UniProt P20309); experiment: Human muscarinic M3 receptor binding assay; settings: CHO-K1 cell membranes, [3H]-NMS radioligand
Procedure: Test 2: Human Muscarinic M1, M2, M3, M4 and M5 receptors binding assays
The study of binding to human muscarinic M1, M2, M3, M4 and M5 receptors was performed using commercial membranes (Perkin Elmer) prepared from CHO-K1 cells. Radioligand binding experiments were conducted in 96 polypropylene well plates in a total volume of 200 μl. All reagents were dissolved in assay binding buffer (PBS with calcium and magnesium, SIGMA), except compounds that were dissolved in DMSO 100%. Non-specific binding (NSB) was measured in the presence of 1 μM atropine. [3H]-NMS was used as the radioligand at a concentration of 1 nM for M2, M3 and M5 and 0.3 nM for M1 and M4. [3H]-NMS and antagonists were incubated with membranes that express human muscarinic receptors M1, M2, M3, M4 and M5 at concentrations of 8.1, 10, 4.9, 4.5 and 4.9 μg/well, respectively.
After an incubation period of two hours with gentle shaking, 150 μl of the reaction mix were transferred to 96 GF/C filter plates (Millipore), previously treated with wash buffer (Tris 50 mM; NaCl 100 mM; pH: 7.4), containing 0.05% PEI (Sigma) during one hour. Bound and free [3H]-NMS were separated by rapid vacuum filtration in a manifold from Millipore and washed four times with ice cold wash buffer. After drying 30 min, 30 μl of OPTIPHASE Supermix were added to each well and radioactivity quantified using a Microbeta microplate scintillation counter.
The affinity of each test compound to the receptors was determined by using ten different concentrations ran in duplicate. IC50s were calculated using Activity Base software from IDBS and the four parameters-log equation.

Sequence of human muscarinic M3 receptors (P20309 whole entry): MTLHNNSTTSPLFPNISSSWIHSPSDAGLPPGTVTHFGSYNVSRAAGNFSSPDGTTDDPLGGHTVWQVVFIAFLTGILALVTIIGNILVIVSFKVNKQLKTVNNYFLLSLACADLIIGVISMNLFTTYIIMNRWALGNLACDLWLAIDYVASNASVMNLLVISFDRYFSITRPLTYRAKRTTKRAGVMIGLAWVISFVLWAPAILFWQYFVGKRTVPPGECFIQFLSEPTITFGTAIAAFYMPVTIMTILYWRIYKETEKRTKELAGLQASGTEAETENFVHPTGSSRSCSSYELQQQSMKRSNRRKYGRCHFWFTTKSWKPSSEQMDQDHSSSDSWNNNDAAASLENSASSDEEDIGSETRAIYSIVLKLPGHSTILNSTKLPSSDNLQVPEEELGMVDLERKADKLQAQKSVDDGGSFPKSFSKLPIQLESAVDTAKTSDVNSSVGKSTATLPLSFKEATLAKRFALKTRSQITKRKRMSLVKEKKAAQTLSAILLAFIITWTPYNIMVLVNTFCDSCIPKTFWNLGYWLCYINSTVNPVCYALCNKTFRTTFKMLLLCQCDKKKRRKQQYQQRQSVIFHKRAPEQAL

Compound | IC50 [1] [nM] | IC50 [2] [nM]
COc1cc(-c2noc(CCCN(C)[C@H]3CC[C@H](OC(=O)C(O)(c4cccs4)c4cccs4)CC3)n2)c(Cl)cc1CNC[C@H](O)c1ccc(O)c2[nH]c(=O)ccc12 (relative stereo) [Example 9, trans-4-[(3-{3-[2-chloro-4-({[(2R)-2-hydroxy-2-(8-hydroxy-2-oxo-1,2-dihydroquinolin-5-yl)ethyl]amino}methyl)-5-methoxyphenyl]-1,2,4-oxadiazol-5-yl}propyl)(methyl)amino]cyclohexylhydroxy(di-2-thienyl)acetate dihydrofluoride] | 2.2 | 0.2
CN(CCCn1c(=O)oc2cc(CCNC[C@H](O)c3ccc(O)c4[nH]c(=O)ccc34)ccc21)[C@H]1CC[C@H](OC(=O)C(O)(c2cccs2)c2cccs2)CC1 (relative stereo) [Example 19, trans-4-[{3-[6-(2-{[(2R)-2-hydroxy-2-(8-hydroxy-2-oxo-1,2-dihydroquinolin-5-yl)ethyl]amino}ethyl)-2-oxo-1,3-benzoxazol-3(2H)-yl]propyl}(methyl)amino]cyclohexylhydroxy(di-2-thienyl)acetate dihydrofluoride] | 62 | 0.8
CC(Cc1ccc(OCC(=O)NCCN[C@H]2CC[C@H](OC(=O)C(O)(c3cccs3)c3cccs3)CC2)cc1)NC[C@H](O)c1ccc(O)c2[nH]c(=O)ccc12 (relative stereo) [Example 20] | 3.1 | 3.6
trans-4-[(3-{3-[4-({[(2R)-2-hydroxy-2-(8-hydroxy-2-oxo-1,2-dihydroquinolin-5-yl)ethyl]amino}methyl)phenyl]-1,2,4-oxadiazol-5-yl}propyl)(methyl)amino]cyclohexylhydroxy(di-2-thienyl)acetate dihydrofluoride [Example 5] | 2.7 | 0.4
trans-4-[{3-[5-({[(2R)-2-hydroxy-2-(8-hydroxy-2-oxo-1,2-dihydroquinolin-5-yl)ethyl]amino}methyl)-2-oxo-2,3-dihydro-1H-benzimidazol-1-yl]propyl}(methyl)amino]cyclohexylhydroxy(di-2-thienyl)acetate dihydrofluoride [Example 2] | 120 | 0.4
trans-4-[{3-[6-({[(2R)-2-hydroxy-2-(8-hydroxy-2-oxo-1,2-dihydroquinolin-5-yl)ethyl]amino}methyl)-2-oxo-1,3-benzothiazol-3(2H)-yl]propyl}(methyl)amino]cyclohexylhydroxy(di-2-thienyl)acetate dihydrofluoride [Example 11] | 4.2 | 0.5
